Measured values reported in ChEMBL document CHEMBL1137783 (J Med Chem, 2009).

Key:
[1] = target: Voltage-gated inwardly rectifying potassium channel KCNH2 (Homo sapiens, UniProt Q12809); assay: (§1) Inhibition of human ERG channel; settings: for pIC50: human
hERG (KCNH2) [2] = target: T1, hERG (KCNH2) (Homo sapiens, UniProt Q12809); assay: Inhibition of human ERG channel at 300 uM
hERG (KCNH2) [3] = target: T1, hERG (KCNH2); assay: as §1; settings: human
hERG (KCNH2) [4] = target: T1, hERG (KCNH2); assay: Inhibition of human ERG channel at 3 uM

T1 sequence (Q12809 whole entry): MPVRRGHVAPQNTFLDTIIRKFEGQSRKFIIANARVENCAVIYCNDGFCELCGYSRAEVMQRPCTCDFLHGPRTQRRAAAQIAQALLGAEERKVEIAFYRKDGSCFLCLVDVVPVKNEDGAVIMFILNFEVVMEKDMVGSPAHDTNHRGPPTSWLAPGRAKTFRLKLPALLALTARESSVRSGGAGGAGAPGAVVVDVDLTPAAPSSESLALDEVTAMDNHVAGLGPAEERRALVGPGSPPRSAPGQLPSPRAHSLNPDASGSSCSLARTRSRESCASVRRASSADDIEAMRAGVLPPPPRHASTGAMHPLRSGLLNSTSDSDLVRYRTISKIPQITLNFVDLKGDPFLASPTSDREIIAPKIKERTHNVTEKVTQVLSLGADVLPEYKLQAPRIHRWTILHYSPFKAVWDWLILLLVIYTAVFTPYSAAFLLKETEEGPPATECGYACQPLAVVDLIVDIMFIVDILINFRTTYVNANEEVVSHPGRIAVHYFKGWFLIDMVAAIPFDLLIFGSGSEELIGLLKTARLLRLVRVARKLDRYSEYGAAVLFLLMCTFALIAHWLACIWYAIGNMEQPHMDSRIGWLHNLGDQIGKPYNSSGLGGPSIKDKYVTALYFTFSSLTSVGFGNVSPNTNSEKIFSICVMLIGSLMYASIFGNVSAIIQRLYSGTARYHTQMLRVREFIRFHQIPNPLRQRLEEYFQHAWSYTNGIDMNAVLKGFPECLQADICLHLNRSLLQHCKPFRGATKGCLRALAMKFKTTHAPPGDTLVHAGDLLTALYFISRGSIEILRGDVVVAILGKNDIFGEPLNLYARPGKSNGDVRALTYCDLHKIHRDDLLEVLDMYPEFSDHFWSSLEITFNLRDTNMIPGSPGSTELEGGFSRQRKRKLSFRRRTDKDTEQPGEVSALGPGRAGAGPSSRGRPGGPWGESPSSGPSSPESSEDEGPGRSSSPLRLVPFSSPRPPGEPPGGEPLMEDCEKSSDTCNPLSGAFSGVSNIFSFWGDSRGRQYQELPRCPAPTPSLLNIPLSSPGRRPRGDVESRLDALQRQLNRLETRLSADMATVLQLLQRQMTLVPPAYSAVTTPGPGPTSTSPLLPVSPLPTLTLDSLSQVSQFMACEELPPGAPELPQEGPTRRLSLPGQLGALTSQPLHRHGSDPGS
Sequence of Voltage-gated inwardly rectifying potassium channel KCNH2 (Q12809 whole entry): as above

Question: For C[N+]1([O-])CCN(C2=Nc3cc(Cl)ccc3Nc3ccccc32)CC1, which IC50 [1] is on record?
Answer: 133000 nM

Question: And the pIC50 [1]?
Answer: 3.875

Question: Cc1nnc(C(C)C)n1C1CC2CCC(C1)N2CC[C@H](NC(=O)C1CCC1)c1ccccc1 (some centres undefined) was tested. Which inhibition at 300 µM (hERG (KCNH2) [2]) did it give?
Answer: 30%

Question: c1ccc(-c2[nH]c3ccccc3c2C2CCNCC2)cc1 was tested. Which Ki (hERG (KCNH2) [3]) did it give?
Answer: 5700 nM

Question: Which Ki (hERG (KCNH2) [3]) does the source give for Fc1ccc(-c2[nH]c3cc(F)ccc3c2C2CCCNC2)cc1 (centres undefined) here?
Answer: 1300 nM

Question: For Cc1nnc(C(C)C)n1C1CC2CCC(C1)N2CC[C@H](NC(=O)C1CCCC1)c1ccccc1 (some centres undefined), which inhibition at 300 µM (hERG (KCNH2) [2]) is on record?
Answer: 18%

Question: CC(C)(CO)NC(=O)[C@H]1CC[C@H](c2nc(-c3cccc(C(F)(F)F)c3)c[nH]2)CC1 was tested. Which inhibition at 3 µM (hERG (KCNH2) [4]) did it give?
Answer: 6%

Question: For Cc1nnc(C(C)C)n1C1CC2CCC(C1)N2CC[C@H](NC(=O)CCC(F)(F)F)c1ccccc1 (some centres undefined), which inhibition at 300 µM (hERG (KCNH2) [2]) is on record?
Answer: 14%

Question: Which Ki (hERG (KCNH2) [3]) does the source give for CN1CCCC(c2c(-c3ccccc3)[nH]c3ccccc23)C1 (centres undefined) here?
Answer: 9600 nM

Question: CN1Cc2cncn2Cc2ccc(C#N)c(c2)Oc2ccc3c(c2)[C@@H](CC3)N2CC[C@@H]1C2=O was tested. Which IC50 [1] did it give?
Answer: 2600 nM

Question: How did the Ki (hERG (KCNH2) [3]) turn out when Fc1ccc2c([C@@H]3CNCC[C@H]3F)c(-c3cccc4ccccc34)[nH]c2c1 was run?
Answer: 110 nM

Question: Which Ki (hERG (KCNH2) [3]) does the source give for Fc1ccc2c([C@@H]3CNCC[C@H]3F)c(-c3ccc4ccccc4c3)[nH]c2c1 here?
Answer: 500 nM

Question: Which Ki (hERG (KCNH2) [3]) does the source give for Fc1ccc2c([C@@H]3CNCC[C@H]3F)c(-c3ccsc3)[nH]c2c1 here?
Answer: 1500 nM

Question: Fc1ccc2[nH]c(-c3ccccc3)c([C@@H]3CNCC[C@H]3F)c2c1 was tested. Which Ki [1] did it give?
Answer: 7000 nM

Question: c1ccc(-c2[nH]c3ccccc3c2C2CC3CCC(C2)N3)cc1 (centres undefined) was tested. Which Ki [1] did it give?
Answer: 18 nM

Question: Which Ki (hERG (KCNH2) [3]) does the source give for Fc1ccc(-c2[nH]c3cc(F)ccc3c2[C@@H]2CNCC[C@H]2F)cc1 here?
Answer: 1600 nM

Question: For CC(=O)Nc1cccc(N2CCN(CCCCNS(=O)(=O)CC3CCCCC3)CC2)c1 [NALUZOTAN], which IC50 [1] is on record?
Answer: 3800 nM

Question: With Cc1cc2c(s1)Nc1ccccc1N=C2N1CCN(C)CC1 [OLANZAPINE] as the molecule, how does the IC50 [1] read?
Answer: 231 nM

Question: What about the pIC50 [1] of the same molecule?
Answer: 6.636
